Experimental data: PubChem BioAssay (NCI)
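Compound exposure: 48 hours, 5 concentrations, 96-well plates. The concentration for 50% growth inhibition is given as GI50. TGI: concentration producing complete growth inhibition.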

Legend:
Test in all cases: NCI anticancer screen, dose series, 48 h
HCT-15 colon = system: HCT-15 colon
HS 578T breast = system: HS 578T breast
MDA-MB-231 breast = system: MDA-MB-231 breast
CAKI-1 renal = system: CAKI-1 renal
HT29 colon = system: HT29 colon
OVCAR-5 ovarian = system: OVCAR-5 ovarian
OVCAR-3 ovarian = system: OVCAR-3 ovarian
SN12C renal = system: SN12C renal
HL-60(TB) leukemia = system: HL-60(TB) leukemia
NCI-H460 lung = system: NCI-H460 lung
A549 NSCLC = system: A549 NSCLC
A498 renal = system: A498 renal
MOLT-4 leukemia = system: MOLT-4 leukemia
U251 CNS = system: U251 CNS
OVCAR-8 ovarian = system: OVCAR-8 ovarian
UACC-62 melanoma = system: UACC-62 melanoma
786-0 renal = system: 786-0 renal
ACHN renal = system: ACHN renal
SK-MEL-2 melanoma = system: SK-MEL-2 melanoma
DU-145 prostate = system: DU-145 prostate
HCC-2998 colon = system: HCC-2998 colon
SK-OV-3 ovarian = system: SK-OV-3 ovarian
SF-295 CNS = system: SF-295 CNS
IGROV1 ovarian = system: IGROV1 ovarian
SK-MEL-5 melanoma = system: SK-MEL-5 melanoma
RPMI-8226 leukemia = system: RPMI-8226 leukemia
UACC-257 melanoma = system: UACC-257 melanoma
MDA-MB-468 breast = system: MDA-MB-468 breast
TK-10 renal = system: TK-10 renal
SK-MEL-28 melanoma = system: SK-MEL-28 melanoma
SR leukemia = system: SR leukemia
PC-3 prostate = system: PC-3 prostate
MALME-3M melanoma = system: MALME-3M melanoma
BT-549 breast = system: BT-549 breast
COLO 205 colon = system: COLO 205 colon
NCI-H522 lung = system: NCI-H522 lung
SNB-75 CNS = system: SNB-75 CNS
HOP-62 NSCLC = system: HOP-62 NSCLC
CCRF-CEM leukemia = system: CCRF-CEM leukemia
MDA-MB-435 = system: MDA-MB-435
EKVX NSCLC = system: EKVX NSCLC
M14 melanoma = system: M14 melanoma
NCI-H226 lung = system: NCI-H226 lung
KM12 colon = system: KM12 colon
HOP-92 NSCLC = system: HOP-92 NSCLC
SF-539 CNS = system: SF-539 CNS
T-47D breast = system: T-47D breast
K-562 leukemia = system: K-562 leukemia
HCT-116 colon = system: HCT-116 colon
UO-31 renal = system: UO-31 renal
SNB-19 CNS = system: SNB-19 CNS
RXF 393 renal = system: RXF 393 renal
OVCAR-4 ovarian = system: OVCAR-4 ovarian
NCI/ADR-RES ovarian = system: NCI/ADR-RES ovarian
MCF7 breast = system: MCF7 breast
NCI-H23 lung = system: NCI-H23 lung
SF-268 CNS = system: SF-268 CNS

CCCCCc1ccc(S(=O)(=O)Nc2cc(-c3csc(N(C)C(C)=O)n3)ccc2N2CCN(C)CC2)cc1
GI50 (HCT-15 colon): 1.04 µM
TGI (HCT-15 colon): > 35.5 µM
GI50 (HS 578T breast): 5.25 µM
TGI (HS 578T breast): 35.1 µM
GI50 (MDA-MB-231 breast): 1.81 µM
TGI (MDA-MB-231 breast): 8.34 µM
GI50 (CAKI-1 renal): 1.86 µM
TGI (CAKI-1 renal): 13.5 µM
GI50 (HT29 colon): 1.13 µM
TGI (HT29 colon): 3.66 µM
GI50 (OVCAR-5 ovarian): 16.5 µM
TGI (OVCAR-5 ovarian): > 35.5 µM
GI50 (OVCAR-3 ovarian): 1.12 µM
TGI (OVCAR-3 ovarian): 12.8 µM
GI50 (SN12C renal): 3.73 µM
TGI (SN12C renal): 28.1 µM
GI50 (HL-60(TB) leukemia): 0.807 µM
TGI (HL-60(TB) leukemia): 2.4 µM
TGI (NCI-H460 lung): 11.1 µM
GI50 (A549 NSCLC): 3.34 µM
TGI (A549 NSCLC): > 35.5 µM
GI50 (A498 renal): 9.21 µM
TGI (A498 renal): > 35.5 µM
GI50 (MOLT-4 leukemia): 1.4 µM
TGI (MOLT-4 leukemia): > 35.5 µM
GI50 (U251 CNS): 7.43 µM
TGI (U251 CNS): > 35.5 µM
GI50 (OVCAR-8 ovarian): 10.2 µM
TGI (OVCAR-8 ovarian): > 35.5 µM
GI50 (UACC-62 melanoma): 6.2 µM
TGI (UACC-62 melanoma): 12.6 µM
GI50 (786-0 renal): 2.29 µM
TGI (786-0 renal): 30.8 µM
GI50 (ACHN renal): 4.66 µM
TGI (ACHN renal): > 35.5 µM
GI50 (SK-MEL-2 melanoma): 8.64 µM
TGI (SK-MEL-2 melanoma): 30.2 µM
GI50 (DU-145 prostate): 3.93 µM
TGI (DU-145 prostate): > 35.5 µM
GI50 (HCC-2998 colon): 1.25 µM
TGI (HCC-2998 colon): 8.55 µM
GI50 (SK-OV-3 ovarian): 7.29 µM
TGI (SK-OV-3 ovarian): 17.5 µM
GI50 (SF-295 CNS): 0.754 µM
TGI (SF-295 CNS): 2.12 µM
GI50 (IGROV1 ovarian): 9.77 µM
TGI (IGROV1 ovarian): > 35.5 µM
GI50 (SK-MEL-5 melanoma): 4.47 µM
TGI (SK-MEL-5 melanoma): 16.9 µM
GI50 (RPMI-8226 leukemia): 1.32 µM
TGI (RPMI-8226 leukemia): > 35.5 µM
GI50 (UACC-257 melanoma): 6.59 µM
TGI (UACC-257 melanoma): 26.9 µM
GI50 (MDA-MB-468 breast): 1.62 µM
TGI (MDA-MB-468 breast): 7.5 µM
GI50 (TK-10 renal): 7.43 µM
TGI (TK-10 renal): 19.9 µM
GI50 (SK-MEL-28 melanoma): 6.76 µM
TGI (SK-MEL-28 melanoma): 19.7 µM
GI50 (SR leukemia): 1.02 µM
TGI (SR leukemia): 3.6 µM
GI50 (PC-3 prostate): 2.2 µM
TGI (PC-3 prostate): > 35.5 µM
GI50 (MALME-3M melanoma): 5.26 µM
TGI (MALME-3M melanoma): 19.7 µM
GI50 (BT-549 breast): 9.72 µM
TGI (BT-549 breast): > 35.5 µM
GI50 (COLO 205 colon): 0.626 µM
TGI (COLO 205 colon): 1.27 µM
GI50 (NCI-H522 lung): 5.51 µM
TGI (NCI-H522 lung): 14.7 µM
GI50 (SNB-75 CNS): 3.6 µM
TGI (SNB-75 CNS): 15 µM
GI50 (HOP-62 NSCLC): 7.85 µM
TGI (HOP-62 NSCLC): > 35.5 µM
GI50 (CCRF-CEM leukemia): 1.02 µM
TGI (CCRF-CEM leukemia): 3.71 µM
GI50 (MDA-MB-435): 2.02 µM
TGI (MDA-MB-435): > 35.5 µM
GI50 (EKVX NSCLC): 15.2 µM
TGI (EKVX NSCLC): > 35.5 µM
GI50 (M14 melanoma): 3.93 µM
TGI (M14 melanoma): > 35.5 µM
GI50 (NCI-H226 lung): 8.43 µM
TGI (NCI-H226 lung): 33.2 µM
GI50 (KM12 colon): 3.61 µM
TGI (KM12 colon): > 35.5 µM
GI50 (HOP-92 NSCLC): 1.71 µM
TGI (HOP-92 NSCLC): 15.4 µM
GI50 (SF-539 CNS): 1.21 µM
TGI (SF-539 CNS): 4.59 µM
GI50 (T-47D breast): 2.95 µM
TGI (T-47D breast): > 35.5 µM
GI50 (K-562 leukemia): 1.01 µM
TGI (K-562 leukemia): > 35.5 µM
GI50 (HCT-116 colon): 1.07 µM
TGI (HCT-116 colon): 3.67 µM
GI50 (UO-31 renal): 5.42 µM
TGI (UO-31 renal): > 35.5 µM
GI50 (SNB-19 CNS): 10.9 µM
TGI (SNB-19 CNS): > 35.5 µM
GI50 (RXF 393 renal): 2.11 µM
TGI (RXF 393 renal): 17.9 µM
GI50 (OVCAR-4 ovarian): 2.22 µM
TGI (OVCAR-4 ovarian): 29.8 µM
GI50 (NCI/ADR-RES ovarian): 5.75 µM
TGI (NCI/ADR-RES ovarian): > 35.5 µM
GI50 (MCF7 breast): 0.983 µM
TGI (MCF7 breast): 4.09 µM
GI50 (NCI-H23 lung): 7.49 µM
TGI (NCI-H23 lung): 31.7 µM
GI50 (SF-268 CNS): 7.01 µM
TGI (SF-268 CNS): > 35.5 µM
